Among the test systems are 786-0 renal; A498 renal; CAKI-1 renal; HT29 colon; IGROV1 ovarian; M14 melanoma; MDA-MB-435; NCI-H460 lung; OVCAR-8 ovarian; RPMI-8226 leukemia; SF-539 CNS; SNB-75 CNS; SW-620 colon; TK-10 renal.
Assay in all cases: DTP human tumour cell line panel, 48 h

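All cell lines were grown in 96-well plates and treated with compound for 48 hours. The concentration for 50% growth inhibition is given as GI50. TGI denotes the concentration required for complete inhibition of growth.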

In general, TGI refers to the concentration at which net growth stops. Low values mean greater sensitivity of the cells, high ones lower sensitivity of the cells. As usually defined, the GI50 is the concentration at which growth is held to half of that of the control. In the case of `COC(=O)c1ccc(C)cc1C1CN=NC12Cc1c(C)cccc1C2=O` (stereo unspecified), the concentration for total growth inhibition (TGI) is greater than 100 µM in the experiment with 786-0 renal; greater than 100 µM in the experiment with A498 renal; greater than 100 µM in the experiment on CAKI-1 renal; greater than 100 µM with HT29 colon; 98 µM in the experiment with IGROV1 ovarian; greater than 100 µM with M14 melanoma. For the same compound, the TGI with MDA-MB-435 was greater than 71.2 µM; in the experiment on NCI-H460 lung it was greater than 100 µM; in the experiment on OVCAR-8 ovarian, greater than 92.4 µM; in the experiment on RPMI-8226 leukemia, greater than 75.3 µM; in the experiment with SF-539 CNS, greater than 100 µM; in the experiment with SNB-75 CNS, greater than 100 µM. Moreover, the TGI in the experiment with SW-620 colon and with TK-10 renal was greater than 100 µM each time. Moreover, in the experiment with M14 melanoma, the GI50 is 25.9 µM.
Turning to `O=C(N/N=C\c1ccc([N+](=O)[O-])cc1)Nc1ccc2ccccc2c1`, the concentration for total growth inhibition (TGI) is 32.7 µM in the experiment with 786-0 renal; 56.8 µM in the experiment with A498 renal; greater than 100 µM in the experiment with CAKI-1 renal; 72.2 µM with HT29 colon; greater than 100 µM in the experiment on IGROV1 ovarian; greater than 100 µM with M14 melanoma. The TGI is greater than 100 µM in the experiment on MDA-MB-435; 36.2 µM in the experiment on NCI-H460 lung; greater than 100 µM with OVCAR-8 ovarian; greater than 100 µM in the experiment on RPMI-8226 leukemia; 47.6 µM in the experiment with SF-539 CNS; 68.1 µM in the experiment on SNB-75 CNS. The total growth inhibition concentration (TGI) turned out to be 53.6 µM with SW-620 colon and 91.3 µM in the experiment on TK-10 renal.
For the compound `CC1(c2cccc(C(F)(F)F)c2)CC(c2cccc(C(F)(F)F)c2)=C(C#N)C(=C(C#N)C#N)N1` (stereo unspecified), the total growth inhibition concentration (TGI) was 31.2 µM in the experiment with 786-0 renal; 32.7 µM with A498 renal; 33.3 µM in the experiment on CAKI-1 renal; 36.2 µM with HT29 colon; 30.6 µM with IGROV1 ovarian; 37.4 µM with M14 melanoma. Further, the concentration for total growth inhibition (TGI) in the experiment with MDA-MB-435 came to 32.6 µM; in the experiment with NCI-H460 lung, 45.8 µM; in the experiment with OVCAR-8 ovarian it was 40.2 µM; with RPMI-8226 leukemia, 47 µM; in the experiment on SF-539 CNS it was 34.9 µM; in the experiment on SNB-75 CNS, 33.6 µM. Further, the TGI with SW-620 colon is 52.1 µM; in the experiment with TK-10 renal, 30.8 µM.
For `O=C1C=CC2(C=C1)O[C@H](CCc1ccccc1)[C@@H](CCc1ccccc1)O2`, the total growth inhibition concentration (TGI) with 786-0 renal, in the experiment with A498 renal, in the experiment on CAKI-1 renal, in the experiment with HT29 colon, with IGROV1 ovarian and with M14 melanoma was greater than 100 µM throughout. Further, the TGI was 76.1 µM with MDA-MB-435; greater than 100 µM with NCI-H460 lung; greater than 100 µM in the experiment with OVCAR-8 ovarian; greater than 100 µM in the experiment with RPMI-8226 leukemia; greater than 100 µM in the experiment on SF-539 CNS; greater than 100 µM with SNB-75 CNS. Further, the total growth inhibition concentration (TGI) in the experiment with SW-620 colon and in the experiment with TK-10 renal was greater than 100 µM in each case.
`COc1ccc(/C=N/n2c(Cc3ccccc3)n[nH]c2=O)c(OC)c1`: the TGI was greater than 69 µM in the experiment on 786-0 renal; greater than 66 µM in the experiment with A498 renal; greater than 100 µM in the experiment with CAKI-1 renal; greater than 64.5 µM in the experiment on HT29 colon; greater than 100 µM with IGROV1 ovarian; greater than 100 µM in the experiment with M14 melanoma. In addition, the TGI in the experiment on MDA-MB-435 was greater than 100 µM; with NCI-H460 lung, greater than 92.5 µM; in the experiment on OVCAR-8 ovarian, greater than 59.6 µM; in the experiment on RPMI-8226 leukemia, greater than 100 µM; in the experiment with SF-539 CNS, greater than 100 µM; in the experiment on SNB-75 CNS it was 28.6 µM. The TGI with SW-620 colon was greater than 100 µM; in the experiment with TK-10 renal, 84.1 µM.
Take `CC(Oc1ccc(Cl)cc1Cl)C(=O)NN1C(=O)CC(=O)NC1=S` (stereo unspecified): the total growth inhibition concentration (TGI) with 786-0 renal, in the experiment with A498 renal, with CAKI-1 renal, with HT29 colon, with IGROV1 ovarian and in the experiment on M14 melanoma was greater than 100 µM each time. Further, the total growth inhibition concentration (TGI) with MDA-MB-435, with NCI-H460 lung, with OVCAR-8 ovarian, in the experiment on RPMI-8226 leukemia, with SF-539 CNS and with SNB-75 CNS was greater than 100 µM each time. In addition, the total growth inhibition concentration (TGI) in the experiment with SW-620 colon and with TK-10 renal was greater than 100 µM throughout.
Consider `Fc1nc(-c2c3ccccc3c3sc4ccccc4n23)nc(N2CCOCCOCCOCCOCC2)n1`, for which the TGI with 786-0 renal, in the experiment with A498 renal, in the experiment on CAKI-1 renal, in the experiment with HT29 colon, in the experiment on IGROV1 ovarian and in the experiment on M14 melanoma was greater than 100 µM each time. The TGI was greater than 100 µM in the experiment with MDA-MB-435; greater than 100 µM in the experiment with NCI-H460 lung; greater than 100 µM with OVCAR-8 ovarian; greater than 100 µM in the experiment with RPMI-8226 leukemia; greater than 100 µM with SF-539 CNS; 5.87 µM with SNB-75 CNS. Moreover, the TGI with SW-620 colon and in the experiment with TK-10 renal was greater than 100 µM each time.
With `NC(N)=N/N=C/c1c(Cl)nc2n1CCS2`, the TGI with 786-0 renal, with A498 renal, in the experiment with CAKI-1 renal, in the experiment on HT29 colon, with IGROV1 ovarian and with M14 melanoma was greater than 100 µM in each case. Moreover, the TGI in the experiment on MDA-MB-435, in the experiment on NCI-H460 lung, with OVCAR-8 ovarian, in the experiment with RPMI-8226 leukemia, in the experiment on SF-539 CNS and in the experiment on SNB-75 CNS was greater than 100 µM each time. Further, the TGI in the experiment on SW-620 colon and in the experiment on TK-10 renal was greater than 100 µM in each case.
As for `COC(=O)C1=CCC[C@H]2[C@@]1(COC(C)=O)CC[C@@H](C)[C@]2(C)CC(=O)c1ccoc1`, the TGI with 786-0 renal, in the experiment with A498 renal, in the experiment with CAKI-1 renal, with HT29 colon, in the experiment on IGROV1 ovarian and in the experiment with M14 melanoma was greater than 50 µM each time. Besides, the concentration for total growth inhibition (TGI) was greater than 50 µM in the experiment with MDA-MB-435; greater than 50 µM in the experiment on NCI-H460 lung; greater than 50 µM in the experiment on OVCAR-8 ovarian; 29.6 µM with RPMI-8226 leukemia; 24.8 µM in the experiment on SF-539 CNS; greater than 50 µM with SNB-75 CNS. Further, the TGI with SW-620 colon and with TK-10 renal was greater than 50 µM throughout.
For `C=C(Cl)C(Cl)(CBr)CCCC(C)C` (stereo unspecified), the TGI with 786-0 renal is 26.4 µM; in the experiment with A498 renal, 34 µM; in the experiment on CAKI-1 renal, 12.1 µM; in the experiment on HT29 colon, 15.7 µM; with IGROV1 ovarian, greater than 100 µM; with M14 melanoma it was greater than 100 µM. Moreover, the TGI was greater than 100 µM with MDA-MB-435; 30.2 µM in the experiment on NCI-H460 lung; 47.6 µM in the experiment on OVCAR-8 ovarian; greater than 27.3 µM in the experiment on RPMI-8226 leukemia; 22.7 µM with SF-539 CNS; 41.5 µM in the experiment with SNB-75 CNS. The concentration for total growth inhibition (TGI) in the experiment with SW-620 colon was greater than 84 µM; in the experiment on TK-10 renal, 32.4 µM.

Values taken from PubChem BioAssay (NCI).
